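1) Cells in 96-well plates. 2) Compound, 48 h, 5 concentrations. 3) Linear interpolation between surrounding doses. 4) Unreached endpoint = highest concentration. TGI: total growth inhibition.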
Legend:
Assay in all cases: NCI tumour cell line growth inhibition, 48 h
786-0 renal = system: 786-0 renal
A498 renal = system: A498 renal
A549 NSCLC = system: A549 NSCLC
ACHN renal = system: ACHN renal
COLO 205 colon = system: COLO 205 colon
DU-145 prostate = system: DU-145 prostate
EKVX NSCLC = system: EKVX NSCLC
HCC-2998 colon = system: HCC-2998 colon
HCT-116 colon = system: HCT-116 colon
HCT-15 colon = system: HCT-15 colon
HL-60(TB) leukemia = system: HL-60(TB) leukemia
HOP-62 NSCLC = system: HOP-62 NSCLC
HOP-92 NSCLC = system: HOP-92 NSCLC
HS 578T breast = system: HS 578T breast
HT29 colon = system: HT29 colon
IGROV1 ovarian = system: IGROV1 ovarian
K-562 leukemia = system: K-562 leukemia
KM12 colon = system: KM12 colon
LOX IMVI melanoma = system: LOX IMVI melanoma
MALME-3M melanoma = system: MALME-3M melanoma
MCF7 breast = system: MCF7 breast
MDA-MB-231 breast = system: MDA-MB-231 breast
MDA-MB-435 = system: MDA-MB-435
MDA-N = system: MDA-N
MOLT-4 leukemia = system: MOLT-4 leukemia
NCI-H226 lung = system: NCI-H226 lung
NCI-H23 lung = system: NCI-H23 lung
NCI-H460 lung = system: NCI-H460 lung
NCI-H522 lung = system: NCI-H522 lung
NCI/ADR-RES ovarian = system: NCI/ADR-RES ovarian
OVCAR-3 ovarian = system: OVCAR-3 ovarian
OVCAR-4 ovarian = system: OVCAR-4 ovarian
OVCAR-5 ovarian = system: OVCAR-5 ovarian
PC-3 prostate = system: PC-3 prostate
RPMI-8226 leukemia = system: RPMI-8226 leukemia
RXF 393 renal = system: RXF 393 renal
SF-268 CNS = system: SF-268 CNS
SF-295 CNS = system: SF-295 CNS
SF-539 CNS = system: SF-539 CNS
SK-MEL-2 melanoma = system: SK-MEL-2 melanoma
SK-MEL-28 melanoma = system: SK-MEL-28 melanoma
SK-MEL-5 melanoma = system: SK-MEL-5 melanoma
SK-OV-3 ovarian = system: SK-OV-3 ovarian
SN12C renal = system: SN12C renal
SNB-19 CNS = system: SNB-19 CNS
SR leukemia = system: SR leukemia
SW-620 colon = system: SW-620 colon
T-47D breast = system: T-47D breast
TK-10 renal = system: TK-10 renal
U251 CNS = system: U251 CNS
UACC-257 melanoma = system: UACC-257 melanoma
UACC-62 melanoma = system: UACC-62 melanoma
UO-31 renal = system: UO-31 renal
BT-549 breast = system: BT-549 breast
CAKI-1 renal = system: CAKI-1 renal
CCRF-CEM leukemia = system: CCRF-CEM leukemia
M14 melanoma = system: M14 melanoma
OVCAR-8 ovarian = system: OVCAR-8 ovarian
SNB-75 CNS = system: SNB-75 CNS

`COC(=O)CC(C)(NS(=O)c1ccc(C)cc1)c1ccccc1` (stereo unspecified) showed a TGI (786-0 renal) of over 100 µM, a TGI (A498 renal) of over 100 µM and a TGI (A549 NSCLC) of over 100 µM. The TGI (ACHN renal) was over 100 µM, the TGI (COLO 205 colon) was over 100 µM and the TGI (DU-145 prostate) was over 100 µM. For the same molecule, the TGI (EKVX NSCLC) was over 100 µM, the TGI (HCC-2998 colon) was over 100 µM and the TGI (HCT-116 colon) was over 100 µM. The TGI (HCT-15 colon) was over 100 µM, the TGI (HL-60(TB) leukemia) was over 100 µM and the TGI (HOP-62 NSCLC) was over 100 µM. For the same molecule, the TGI (HOP-92 NSCLC) was over 100 µM, the TGI (HS 578T breast) was over 100 µM and the TGI (HT29 colon) was over 100 µM. For the same molecule, the TGI (IGROV1 ovarian) was over 100 µM, the TGI (K-562 leukemia) was over 100 µM and the TGI (KM12 colon) was over 100 µM. For the same molecule, the TGI (LOX IMVI melanoma) was over 100 µM, the TGI (MALME-3M melanoma) was over 100 µM and the TGI (MCF7 breast) was over 100 µM. The TGI (MDA-MB-231 breast) was over 100 µM, the TGI (MDA-MB-435) was over 100 µM and the TGI (MDA-N) was over 100 µM. It also gave a TGI (MOLT-4 leukemia) of over 100 µM, a TGI (NCI-H226 lung) of over 100 µM and a TGI (NCI-H23 lung) of over 100 µM. It also gave a TGI (NCI-H460 lung) of over 100 µM, a TGI (NCI-H522 lung) of over 100 µM and a TGI (NCI/ADR-RES ovarian) of over 100 µM. The TGI (OVCAR-3 ovarian) was over 100 µM, the TGI (OVCAR-4 ovarian) was over 100 µM and the TGI (OVCAR-5 ovarian) was over 100 µM. It also gave a TGI (PC-3 prostate) of over 100 µM, a TGI (RPMI-8226 leukemia) of over 100 µM and a TGI (RXF 393 renal) of over 100 µM. The TGI (SF-268 CNS) was over 100 µM, the TGI (SF-295 CNS) was over 100 µM and the TGI (SF-539 CNS) was over 100 µM. The TGI (SK-MEL-2 melanoma) was over 100 µM, the TGI (SK-MEL-28 melanoma) was over 100 µM and the TGI (SK-MEL-5 melanoma) was over 100 µM. It also gave a TGI (SK-OV-3 ovarian) of over 100 µM, a TGI (SN12C renal) of over 100 µM and a TGI (SNB-19 CNS) of over 100 µM. It also gave a TGI (SR leukemia) of over 100 µM, a TGI (SW-620 colon) of over 100 µM and a TGI (T-47D breast) of over 100 µM. The TGI (TK-10 renal) was over 100 µM, the TGI (U251 CNS) was over 100 µM and the TGI (UACC-257 melanoma) was over 100 µM. It also gave a TGI (UACC-62 melanoma) of over 100 µM and a TGI (UO-31 renal) of over 100 µM.
For `O=C1/C(=C\c2ccc(Cl)cc2Cl)Sc2scc(-c3ccc(O)c(O)c3)[n+]21`, the TGI (786-0 renal) was 31.6 µM, the TGI (A549 NSCLC) was 44.1 µM and the TGI (ACHN renal) was 46.3 µM. For the same molecule, the TGI (BT-549 breast) was 46.7 µM, the TGI (CAKI-1 renal) was 43.4 µM and the TGI (CCRF-CEM leukemia) was 39.4 µM. It also gave a TGI (COLO 205 colon) of 40.5 µM, a TGI (DU-145 prostate) of 41.9 µM and a TGI (EKVX NSCLC) of 49 µM. For the same molecule, the TGI (HCC-2998 colon) was 40.9 µM, the TGI (HCT-116 colon) was 29.8 µM and the TGI (HCT-15 colon) was 30.1 µM. For the same molecule, the TGI (HL-60(TB) leukemia) was 29.8 µM, the TGI (HOP-62 NSCLC) was 30.1 µM and the TGI (HOP-92 NSCLC) was 23.1 µM. The TGI (HS 578T breast) was over 100 µM, the TGI (HT29 colon) was 32.6 µM and the TGI (IGROV1 ovarian) was 50.7 µM. The TGI (KM12 colon) was 33.9 µM, the TGI (LOX IMVI melanoma) was 40.8 µM and the TGI (M14 melanoma) was 40.6 µM. For the same molecule, the TGI (MCF7 breast) was 73.2 µM, the TGI (MDA-MB-231 breast) was 61.2 µM and the TGI (MDA-MB-435) was 57.7 µM. For the same molecule, the TGI (MDA-N) was 60.1 µM, the TGI (MOLT-4 leukemia) was 29.6 µM and the TGI (NCI-H226 lung) was 35.4 µM. It also gave a TGI (NCI-H23 lung) of 31.3 µM, a TGI (NCI-H460 lung) of 48.2 µM and a TGI (NCI-H522 lung) of 39.4 µM. For the same molecule, the TGI (NCI/ADR-RES ovarian) was 35.6 µM, the TGI (OVCAR-3 ovarian) was 23.2 µM and the TGI (OVCAR-4 ovarian) was 35.8 µM. The TGI (OVCAR-5 ovarian) was 46.3 µM, the TGI (OVCAR-8 ovarian) was 35.2 µM and the TGI (PC-3 prostate) was 36.4 µM. For the same molecule, the TGI (RXF 393 renal) was 37.1 µM, the TGI (SF-268 CNS) was over 100 µM and the TGI (SF-295 CNS) was 49.2 µM. It also gave a TGI (SF-539 CNS) of 45.2 µM, a TGI (SK-MEL-2 melanoma) of 35.5 µM and a TGI (SK-MEL-28 melanoma) of 31.7 µM. For the same molecule, the TGI (SK-MEL-5 melanoma) was 22.9 µM, the TGI (SK-OV-3 ovarian) was 39.2 µM and the TGI (SN12C renal) was 30.3 µM. The TGI (SNB-19 CNS) was 48.8 µM, the TGI (SNB-75 CNS) was 53.4 µM and the TGI (SW-620 colon) was 29.7 µM. For the same molecule, the TGI (TK-10 renal) was 38.8 µM, the TGI (U251 CNS) was 25.5 µM and the TGI (UACC-257 melanoma) was 71.3 µM. The TGI (UACC-62 melanoma) was 22.4 µM and the TGI (UO-31 renal) was 26.8 µM.

Source: PubChem BioAssay (NCI)
